Read-outs that look alike come from different tables or passages of the source.
What was measured:
HCT116 = test: 2D combinational test (SRB growth inhibition, six days); type: cell-based, human
Text: (§1) OD values were normalized to control. […] Data shown are results of three independent experiments.

SNUC2B = test: as above; type: cell-based, human
Text: as §1

SW1990 = test: as above; type: cell-based, human; details: SW1990
Text: as §1

A549 = test: as above; type: cell-based, human
Text: as §1

SW480 = test: as above; type: cell-based, human
Text: as §1

SW1573 [1] = test: as above; details: SW1573
Protocol: H358, SW1573, H1792, MIAPACA2, SW1990, SNUC2B, SW480, A549 and HCT116 were purchased from ATCC, while SW48 KRAS G12C colorectal cell line and H838 KRAS G12D lung cell line was bought from Horizon Discovery Ltd. Most of the cell lines were heterozygous for mutant KRAS, as in human cases used to occur, but we also used cell lines with homozygous mutant KRAS.
Cells were cultured in DMEM (Lonza, Switzerland; with 4500 mg/dm3 glucose, pyruvate and L-glutamine) supplemented with 10% fetal calf serum (EuroClone) and 1% penicillin-streptomycin-amphotericin (Lonza) in tissue culture flasks in a humidified 5% CO2 atmosphere at 37° C.
For in vitro experiments drugs were dissolved in DMSO in 10 mM stock concentration and stored at −80° C.
Cells that reached 70-80% confluency were trypsinized and counted using Luna II Automated Cell Counter. Cells were plated in 5000-10000 cells/well density (depending on the growth rate of the given cell line) on a 24 well plate. Next day the medium was replaced to fresh medium supplemented with the inhibitors. After 6 days, the wells were washed with DPBS (Lonza) and the cells were fixed by 10% trichloroacetic acid and stained with Sulphorodamine-B (SRB) (Sigma) dye for 15 minutes. Plates then were repeatedly washed with 1% acetic acid to remove excess dye. Protein-bound SRB was then dissolved in 10 mM Tris buffer (pH=7,4) and OD was measured at 570 nm using a microplate reader (EL800, BioTec Instruments, Winooski, VT). OD values were normalized to control. Transformed data then were used to calculate combinational index (CI) values using Compusyn software as described in https://www.combosyn.com/index.html. Data shown are results of three independent experiments.

H358 = test: as above
H838 KRAS G12D = test: as above; type: cell-based, human
Text: as §1

PF906 = test: as above; type: cell-based, human
Text: as §1

cancer patients = details: cited from earlier work
SW1573 spheroids = test: 3D spheroid growth test; type: cell-based, human
Protocol: Spheroids were generated using polyHEMA coated 96we11 round bottom plates. Briefly, the inner 60 wells of the plate were coated with 60 μl 5 mg/ml polyHEMA dissolved in 96% ethanol. Plates were dried at 60° C. in a plate shaker while shaking, then sterilized with UV. Cells were seeded at 3000 cells/well density at the inner 60 polyHEMA coated wells in 200 μl medium, while the outer wells were filled with DPBS (Lonza) to avoid evaporation. Plates were then centrifugated at 2000 RPM so that cells would be concentrated at the bottom of the well thus enhancing single spheroid formation. Within 24 hours the cells aggregated into spheroids and were treated by adding further 100 μl medium supplemented with the inhibitors. Each concentration group contained three spheroids. Each spheroid was pictured using a ToupCam XW 3MP microscope-camera on the first and sixth day of the treatment. Before imaging, medium was gently suspended so that unattached or dead cells would be removed from the surface of the spheroids. Images then were analysed using ImageJ software with a modified script of [1]. Briefly, the script measures the area of the 2D projections of the spheroids. Results were manually reviewed, then area values were used to calculate radius and volume of spheroids using the formula V=4/3×π×radius^3. Data are shown as results of three independent experiments.

SW1573 [2] = test: siRNA knockdown experiment (SRB, IC50); type: cell-based, human; details: 6-day-long treatment
Protocol: Cells were plated in 2500 and 7500 cells/well density (for non-targeting siRNA and HRAS siRNA treatment, respectively) on a 48we11 plate supplemented with pre-mixed Lipofectamine RNAIMAX Reagent (Thermo Fisher) and OptiMEM (Thermo Fisher) containing 2.5 pmol/well non-targeting or HRAS siRNA according to the manufacturer's instruction (reverse transfection protocol). […] On the 3rd day of the treatment, cells were supplemented with fresh pre-mixed 2.5 pmol/well siRNA diluted in Lipofectamine RNAiMAX Reagent and Optimem according to the manufacturer's instruction. […] OD values were normalized to control, and IC50 values were calculated from transformed data using GraphPad PRISM 5 software.

H358 xenografts = test: In vivo tumor growth of subcutaneous xenografts; set-up: species or system female SCID mice; details: AMG510 5 mg/kg i.p. and/or tipifarnib 40 mg/kg i.p.
Protocol: (§2) H358 and SW1573 human lung adenocarcinoma cells (5×10^6 and 1×10^6, respectively) were subcutaneously injected in female SCID mice. Cells were injected in 200 μl DMEM:Matrigel mixture (ratio 1:1) based on preliminary experiments. When tumor reached approximately 100 mm^3 (H358 7 days, SW1573 26 days after injection), animals were randomized and treated intraperitoneally daily except for weekends. Drugs were dissolved in 60% DPBS, 34% PEG300, 5% DMSO and 1% Tween80. […] Controls received vehicle. Doses were determined based on previous literature, roughly using half of the used per os doses. The subcutaneous tumors were measured with a caliper and tumor volumes were calculated with the formula […] and expressed in mm^3. H358 experiment was terminated after 18 days and SW1573 after 25 days treatment. Tumors were measured upon harvest, then fixed with 4% PFA for histological analyses.
(§3) Animals were the properties of the Department of Experimental Pharmacology, National Institute of Oncology, H-1122, Budapest, Hungary. All experiments were carried out in accordance with the Guidelines for Animal Experiments and were approved for the Department of Experimental Pharmacology in the National Institute of Oncology, Budapest, Hungary.

SW1573 xenografts = test: In vivo tumor growth of subcutaneous xenografts; set-up: species or system female SCID mice; details: AMG510 25 mg/kg i.p. and/or tipifarnib 40 mg/kg i.p.
Protocol: as §2, §3

[3] = concentration range of 1-20 μM, data not shown
[4] = 0 nM tipifarnib + 25 nM MRTX1133
[5] = 0 nM tipifarnib + 125 nM MRTX1133
[6] = 0 nM tipifarnib + 625 nM MRTX1133
[7] = (day 1 = 1), animal 1, in g (unit assumed)
[8] = (day 1 = 1), animal 3, in g (unit assumed)
[9] = (day 1 = 1), animal 4, in g (unit assumed)
[10] = (day 1 = 1), animal 6, in g (unit assumed)
[11] = (day 1 = 1), animal 7, in g (unit assumed)
[12] = (day 1 = 1), group mean, in g (unit assumed)

## Cn1cnc(Cn2ccc3ccc(CNCc4[nH]c5ccccc5c4[C@H]4NC(=O)c5ccc(O)cc54)cc32)c1 [BI2852]
HCT116; 0 nM TIPIFARNIB + 10 μM BI2852
  Relative cell viability (MEAN): 0.846
HCT116; 0 nM TIPIFARNIB + 20 μM BI2852
  Relative cell viability (MEAN): 0.7086
HCT116; 0 nM TIPIFARNIB + 30 μM BI2852
  Relative cell viability (MEAN): 0.5907
SNUC2B; 0 nM tipifarnib + 10 μM BI2852
  Relative cell viability (MEAN): 0.8372
SNUC2B; 0 nM tipifarnib + 20 μM BI2852
  Relative cell viability (MEAN): 0.7477
SNUC2B; 0 nM tipifarnib + 30 μM BI2852
  Relative cell viability (MEAN): 0.664
SW1990; 0 nM tipifarnib + 10 μM BI2852
  Relative cell viability (MEAN): 0.9287
SW1990; 0 nM tipifarnib + 20 μM BI2852
  Relative cell viability (MEAN): 0.8554
SW1990; 0 nM tipifarnib + 30 μM BI2852
  Relative cell viability (MEAN): 0.8187
A549; 0 nM TIPIFARNIB + 20 μM BI2852
  Relative cell viability (MEAN): 0.9541
A549; 0 nM TIPIFARNIB + 30 μM BI2852
  Relative cell viability (MEAN): 0.8484
A549; 0 nM TIPIFARNIB + 40 μM BI2852
  Relative cell viability (MEAN): 0.7576
SW480; 0 nM lonafarnib + 15 μM BI2852
  Relative cell viability (MEAN): 0.8064
SW480; 0 nM lonafarnib + 20 μM BI2852
  Relative cell viability (MEAN): 0.6712
SW480; 0 nM lonafarnib + 30 μM BI2852
  Relative cell viability (MEAN): 0.3888
SW480; 0 nM tipifarnib + 5 μM BI2852
  Relative cell viability (MEAN): 0.9312
SW480; 0 nM tipifarnib + 10 μM BI2852
  Relative cell viability (MEAN): 0.7461
SW480; 0 nM tipifarnib + 15 μM BI2852
  Relative cell viability (MEAN): 0.5371

## Cc1nc[nH]c1CN1CCN(C(=O)N[C@@H](CC(C)C)C(=O)O)[C@@H](Cc2ccccc2)C1=O [GGTI-2418]
SW1573 [1]; [3]
  Effect on tumor cell proliferation (in words): ineffective
H358; [3]
  Effect on tumor cell proliferation (in words): ineffective

## C#Cc1c(F)ccc2cc(O)cc(-c3ncc4c(N5CC6CCC(C5)N6)nc(OC[C@@]56CCCN5C[C@H](F)C6)nc4c3F)c12 [MRTX1133]
SNUC2B; 0 nM tipifarnib + 50 nM MRTX1133
  Relative cell viability (MEAN): 0.739
SNUC2B; 0 nM tipifarnib + 100 nM MRTX1133
  Relative cell viability (MEAN): 0.7023
SNUC2B; 0 nM tipifarnib + 500 nM MRTX1133
  Relative cell viability (MEAN): 0.6567
H838 KRAS G12D; [4]
  Relative cell viability (MEAN): 0.8997
H838 KRAS G12D; [5]
  Relative cell viability (MEAN): 0.7955
H838 KRAS G12D; [6]
  Relative cell viability (MEAN): 0.6909
SW1990; 0 nM lonafarnib + 2.5 nM MRTX1133
  Relative cell viability (MEAN): 0.848
SW1990; 0 nM lonafarnib + 5 nM MRTX1133
  Relative cell viability (MEAN): 0.7005
SW1990; 0 nM lonafarnib + 10 nM MRTX1133
  Relative cell viability (MEAN): 0.5543
SW1990; 0 nM tipifarnib + 2.5 nM MRTX1133
  Relative cell viability (MEAN): 0.7355
SW1990; 0 nM tipifarnib + 5 nM MRTX1133
  Relative cell viability (MEAN): 0.5922
SW1990; 0 nM tipifarnib + 10 nM MRTX1133
  Relative cell viability (MEAN): 0.4549
PF906; [4]
  Relative cell viability (MEAN): 0.716
PF906; [5]
  Relative cell viability (MEAN): 0.625
PF906; [6]
  Relative cell viability (MEAN): 0.574

## sotorasib [AMG510]
SW1573 [1]
  Sensitivity to treatment in 2D in vitro experiments: resistant
Cancer patients; LUAD patients
  Clinical efficacy in monotherapy: good efficacy
Cancer patients; colorectal cancer patients
  Clinical efficacy in monotherapy: relatively less effective
Cancer patients; tested clinically
  Clinical toxicity: without rate limiting toxicities
SW1573 spheroids
  Drug sensitivity in 3D compared to 2D settings: higher sensitivity
SW1573 [2]; Cont (non-targeting) siRNA
  IC50: 100 nM
SW1573 [2]; HRAS siRNA
  IC50: 51.7 nM
H358
  Sensitivity to treatment in 2D in vitro experiments: highly sensitive
H358 xenografts; [7]
  Weights of the tumors at the end of the experiment: 0.053
H358 xenografts; (day 1 = 1), animal 2, in g (unit assumed)
  Weights of the tumors at the end of the experiment: 0.559
H358 xenografts; [8]
  Weights of the tumors at the end of the experiment: 0.038
H358 xenografts; [9]
  Weights of the tumors at the end of the experiment: 0.157
H358 xenografts; [10]
  Weights of the tumors at the end of the experiment: 0.254
H358 xenografts; [11]
  Weights of the tumors at the end of the experiment: 0.029
H358 xenografts; [12]
  Weights of the tumors at the end of the experiment, MEAN: 0.1817
H358 xenografts; daily except weekends
  Inhibition of tumor growth (in words): effectively inhibited tumors
SW1573 xenografts; [7]
  Weights of the tumors at the end of the experiment: 0.1025
SW1573 xenografts; [8]
  Weights of the tumors at the end of the experiment: 0.7238
SW1573 xenografts; [9]
  Weights of the tumors at the end of the experiment: 0.2227
SW1573 xenografts; (day 1 = 1), animal 5, in g (unit assumed)
  Weights of the tumors at the end of the experiment: 0.144
SW1573 xenografts; [10]
  Weights of the tumors at the end of the experiment: 0.5804
SW1573 xenografts; [11]
  Weights of the tumors at the end of the experiment: 0.4184
SW1573 xenografts; [12]
  Weights of the tumors at the end of the experiment, MEAN: 0.3653
SW1573 xenografts; daily except weekends
  Inhibition of tumor growth (in words): effectively inhibited tumors

From patent US20240058321A1, “FARNESYL-TRANSFERASE INHIBITORS AND KRAS INHIBITORS FOR TREATING KRAS MUTANT CANCERS” (SEMMELWEIS EGYETEM, priority 2021, published 2024)
